{"source": "patent US11266643B2", "about": "“Triaryl compounds for treatment of PD-L1 diseases” (CHEMOCENTRYX, INC., priority 2019, dated 2022)", "data": [{"target": "human PD-L1 (Homo sapiens (Human), UniProt Q9NZQ7)", "sequence (Q9NZQ7 19-239)": "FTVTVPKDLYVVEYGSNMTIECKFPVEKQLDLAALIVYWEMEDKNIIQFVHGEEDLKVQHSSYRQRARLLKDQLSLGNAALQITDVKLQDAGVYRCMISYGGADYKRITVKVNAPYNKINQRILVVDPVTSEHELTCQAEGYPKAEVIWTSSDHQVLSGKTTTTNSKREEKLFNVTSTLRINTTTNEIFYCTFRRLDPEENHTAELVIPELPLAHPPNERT", "assay": "Enzyme-Linked Immunosorbent Assay (ELISA), PD-1/PD-L1 binding", "settings": "human PD-1/PD-L1 ELISA, plates coated with human PD-L1", "procedure": "96 Well plates were coated with […] of human PD-L1 (obtained from R&D) in PBS overnight at 4° C. The wells were then blocked with 2% BSA in PBS (W/V) with 0.05% TWEEN-20 for 1 hour at 37° C. The plates were washed 3 times with PBS/0.05% TWEEN-20 and the compounds were serial diluted (1:5) in dilution medium and added to the ELISA plates. Human PD-1 […] 0.31 μg/mL (ACRO Biosystems) were added and incubated for 1 hour at 37° C. then washed 3 times with PBS/0.05% TWEEN-20. A second block was performed with 2% BSA in PBS (W/V)/0.05% TWEEN-20 for 10 min at 37° C. and the plates were washed 3 times with PBS/0.05% TWEEN-20. Streptavidin-HRP was added for 1 hour at 37° C. then the plates were washed 3 times with PBS/0.05% TWEEN-20. TMB substrate was added and reacted for 20 min at 37° C. A stop solution (2 N aqueous H2SO4) was added. The absorbance was read at 450 nm using a micro-plate spectrophotometer.\nUsing the methods described in the Examples above, the compounds in Table 2 were prepared & tested for biological activity using the ELISA method described above.", "units": {"IC50": "nM"}, "values": [{"smiles": "COc1cc(-c2cccc(-c3cccc(NC(=O)c4nn(C)c(=O)n(C)c4=O)c3C)c2C)cc(F)c1CN[C@H]1CCCNC1=O", "note": "[Example 1.060]", "IC50": "10 to 1000"}, {"smiles": "COc1cc(-c2cccc(-c3cccc(NC(=O)c4nn(C)c(=O)n(C)c4=O)c3C)c2C)cc(F)c1CNCCCC(N)=O", "note": "[Example 1.062]", "IC50": "< 10"}, {"smiles": "COc1cc(-c2cccc(-c3cccc(NC(=O)c4nn(C)c(=O)n(C)c4=O)c3C)c2C)cc(F)c1CNCC(C)(C)C(N)=O", "note": "[Example 1.063]", "IC50": "< 10"}, {"smiles": "COc1cc(-c2cccc(-c3cccc(NC(=O)c4nn(C)c(=O)n(C)c4=O)c3C)c2C)cc(F)c1CNCC(N)=O", "note": "[Example 1.064]", "IC50": "< 10"}, {"smiles": "COc1cc(-c2cccc(-c3cccc(NC(=O)c4nn(C)c(=O)n(C)c4=O)c3C)c2C)cc(F)c1CNC(C)C", "note": "[Example 1.065]", "IC50": "< 10"}, {"smiles": "COc1cc(-c2cccc(-c3cccc(NC(=O)c4cncn(C)c4=O)c3C)c2C)cc(F)c1CN[C@@H]1CCOC[C@@H]1O", "note": "[Example 1.066]", "IC50": "< 10"}, {"smiles": "COc1cc(-c2cccc(-c3cccc(NC(=O)c4cn(C)c(=O)n(C)c4=O)c3C)c2C)cc(F)c1CNCC1CCNC(=O)C1", "note": "(centres unmarked) [Example 1.067]", "IC50": "< 10"}, {"smiles": "COc1cc(-c2cccc(-c3cccc(NC(=O)c4nn(C)c(=O)n(C)c4=O)c3C)c2C)cc(F)c1CNC[C@H]1CCC(=O)N1", "note": "[Example 1.068]", "IC50": "< 10"}, {"smiles": "COc1cc(-c2cccc(-c3cccc(NC(=O)c4nn(C)c(=O)n(C)c4=O)c3C)c2C)cc(F)c1CN[C@@H]1CCC(=O)NC1", "note": "[Example 1.069]", "IC50": "< 10"}, {"smiles": "COc1cc(-c2cccc(-c3cccc(NC(=O)c4nn(C)c(=O)n(C)c4=O)c3C)c2C)cc(F)c1CN[C@H]1CNC(=O)C1", "note": "[Example 1.070]", "IC50": "< 10"}, {"smiles": "COc1cc(-c2cccc(-c3cccc(NC(=O)c4c[nH]c(=O)n(C)c4=O)c3C)c2C)cc(F)c1CNCC1CCNC(=O)C1", "note": "(centres unmarked) [Example 1.071]", "IC50": "< 10"}, {"smiles": "COc1cc(-c2cccc(-c3cccc(NC(=O)c4cn(C)c(=O)n(C)c4=O)c3C)c2C)cc(F)c1CN[C@H]1COC[C@@H]1O", "note": "[Example 1.072]", "IC50": "< 10"}, {"smiles": "COc1cc(-c2cccc(-c3cccc(NC(=O)c4c[nH]c(=O)n(C)c4=O)c3C)c2C)cc(F)c1CN(C)[C@@H]1CNC(=O)C1", "note": "[Example 1.073]", "IC50": "10 to 1000"}, {"smiles": "COc1cc(-c2cccc(-c3cccc(NC(=O)c4cccn(C)c4=O)c3C)c2C)cc(F)c1CN(C)[C@@H]1CNC(=O)C1", "note": "[Example 1.074]", "IC50": "10 to 1000"}, {"smiles": "COc1cc(-c2cccc(-c3cccc(NC(=O)c4nn(C)c(=O)n(C)c4=O)c3C)c2C)cc(F)c1CN[C@@H]1CCOC[C@@H]1O", "note": "[Example 1.076]", "IC50": "< 10"}, {"smiles": "COc1cc(-c2cccc(-c3cccc(NC(=O)c4nn(C)c(=O)n(C)c4=O)c3C)c2C)cc(F)c1CN(C)C[C@@H]1CCC(=O)N1", "note": "[Example 1.077]", "IC50": "< 10"}, {"smiles": "COc1cc(-c2cccc(-c3cccc(NC(=O)c4c[nH]c(=O)n(C)c4=O)c3C)c2C)cc(F)c1CN[C@@H]1COC[C@H]1O", "note": "[Example 1.078]", "IC50": "< 10"}, {"smiles": "COc1cc(-c2cccc(-c3cccc(NC(=O)c4c[nH]c(=O)n(C)c4=O)c3C)c2C)cc(F)c1CN[C@H]1COC[C@@H]1O", "note": "[Example 1.079]", "IC50": "< 10"}, {"smiles": "COc1cc(-c2cccc(-c3cccc(NC(=O)c4cn(C)c(=O)n(C)c4=O)c3C)c2C)cc(F)c1CNCC(C)(C)C(N)=O", "note": "[Example 1.080]", "IC50": "< 10"}, {"smiles": "COc1cc(-c2cccc(-c3cccc(NC(=O)c4cn(C)c(=O)n(C)c4=O)c3C)c2C)cc(F)c1CNCCCC(N)=O", "note": "[Example 1.081]", "IC50": "< 10"}, {"smiles": "COc1cc(-c2cccc(-c3cccc(NC(=O)c4cn(C)c(=O)n(C)c4=O)c3C)c2C)cc(F)c1CNCCC1CNC(=O)C1", "note": "(centres unmarked) [Example 1.082]", "IC50": "< 10"}, {"smiles": "COc1cc(-c2cccc(-c3cccc(NC(=O)c4c[nH]c(=O)n(C)c4=O)c3C)c2C)cc(F)c1CNCCCC(N)=O", "note": "[Example 1.083]", "IC50": "< 10"}, {"smiles": "COc1cc(-c2cccc(-c3cccc(NC(=O)c4cncn(C)c4=O)c3C)c2C)cc(F)c1CN(C)[C@@H]1CNC(=O)C1", "note": "[Example 1.084]", "IC50": "10 to 1000"}, {"smiles": "COc1cc(-c2cccc(-c3cccc(NC(=O)c4c[nH]c(=O)n(C)c4=O)c3C)c2C)cc(F)c1CNCC(C)(C)C(N)=O", "note": "[Example 1.085]", "IC50": "< 10"}, {"smiles": "COc1cc(-c2cccc(-c3cccc(NC(=O)c4c[nH]c(=O)n(C)c4=O)c3C)c2C)cc(F)c1CNCCC1CNC(=O)C1", "note": "(centres unmarked) [Example 1.086]", "IC50": "< 10"}, {"smiles": "COc1cc(-c2cccc(-c3cccc(NC(=O)c4cncn(C)c4=O)c3C)c2C)cc(F)c1CNC1CCOCC1", "note": "[Example 1.087]", "IC50": "< 10"}, {"smiles": "COc1cc(-c2cccc(-c3cccc(NC(=O)c4nn(C)c(=O)n(C)c4=O)c3C)c2C)cc(F)c1CNCC[C@@H]1CCC(=O)N1", "note": "[Example 1.088]", "IC50": "< 10"}, {"smiles": "COc1cc(-c2cccc(-c3cccc(NC(=O)c4nn(C)c(=O)n(C)c4=O)c3C)c2C)cc(F)c1CN[C@H]1CCC(=O)NC1", "note": "[Example 1.089]", "IC50": "< 10"}, {"smiles": "COc1cc(-c2cccc(-c3cccc(NC(=O)c4nn(C)c(=O)n(C)c4=O)c3C)c2C)cc(F)c1CNCCC(N)=O", "note": "[Example 1.090]", "IC50": "< 10"}, {"smiles": "COc1cc(-c2cccc(-c3cccc(NC(=O)c4cncn(C)c4=O)c3C)c2C)cc(F)c1CNCCC(N)=O", "note": "[Example 1.091]", "IC50": "< 10"}, {"smiles": "COc1cc(-c2cccc(-c3cccc(NC(=O)c4nn(C)c(=O)n(C)c4=O)c3C)c2C)cc(F)c1CNCCN1CCCC1=O", "note": "[Example 1.092]", "IC50": "< 10"}, {"smiles": "COc1cc(-c2cccc(-c3cccc(NC(=O)c4cn(C)c(=O)n(C)c4=O)c3C)c2C)cc(F)c1CNC1CCNC(=O)C1", "note": "(centres unmarked) [Example 1.093]", "IC50": "< 10"}, {"smiles": "COc1cc(-c2cccc(-c3cccc(NC(=O)c4c[nH]c(=O)n(C)c4=O)c3C)c2C)cc(F)c1CN[C@@H]1CCC(=O)NC1", "note": "[Example 1.094]", "IC50": "< 10"}, {"smiles": "COc1cc(-c2cccc(-c3cccc(NC(=O)c4cn(C)c(=O)n(C)c4=O)c3C)c2C)cc(F)c1CNCC1CCCNC1=O", "note": "(centres unmarked) [Example 1.095]", "IC50": "< 10"}, {"smiles": "COc1cc(-c2cccc(-c3cccc(NC(=O)c4c[nH]c(=O)n(C)c4=O)c3C)c2C)cc(F)c1CNC1CCNC(=O)C1", "note": "(centres unmarked) [Example 1.096]", "IC50": "< 10"}, {"smiles": "COc1cc(-c2cccc(-c3cccc(NC(=O)c4cccn(C)c4=O)c3C)c2C)cc(F)c1CNCc1c[nH]c(=O)[nH]c1=O", "note": "[Example 1.097]", "IC50": "< 10"}, {"smiles": "COc1cc(-c2cccc(-c3cccc(NC(=O)c4cncn(C)c4=O)c3C)c2C)cc(F)c1CNCC1CCCNC1=O", "note": "(centres unmarked) [Example 1.098]", "IC50": "< 10"}, {"smiles": "COc1cc(-c2cccc(-c3cccc(NC(=O)c4cncn(C)c4=O)c3C)c2C)cc(F)c1CNCCN1CCCC1=O", "note": "[Example 1.099]", "IC50": "< 10"}, {"smiles": "COc1cc(-c2cccc(-c3cccc(NC(=O)c4c[nH]c(=O)n(C)c4=O)c3C)c2C)cc(F)c1CNCC1CCCNC1=O", "note": "(centres unmarked) [Example 1.100]", "IC50": "< 10"}, {"smiles": "COc1cc(-c2cccc(-c3cccc(Nc4nccc5nccnc45)c3C)c2C)cc(F)c1CNCc1c[nH]c(=O)[nH]c1=O", "note": "[Example 1.101]", "IC50": "10 to 1000"}, {"smiles": "COc1cc(-c2cccc(-c3cccc(NC(=O)c4cncn(C)c4=O)c3C)c2C)cc(F)c1CN[C@@H]1CCC(=O)NC1", "note": "[Example 1.102]", "IC50": "< 10"}, {"smiles": "COc1cc(-c2cccc(-c3cccc(NC(=O)c4cncn(C)c4=O)c3C)c2C)cc(F)c1CNC1CCNC(=O)C1", "note": "(centres unmarked) [Example 1.103]", "IC50": "< 10"}, {"smiles": "COc1cc(-c2cccc(-c3cccc(NC(=O)c4nn(C)c(=O)n(C)c4=O)c3C)c2C)cc(F)c1CNC[C@@H]1CCC(=O)N1", "note": "[Example 1.104]", "IC50": "< 10"}, {"smiles": "COc1cc(-c2cccc(-c3cccc(NC(=O)c4nn(C)c(=O)n(C)c4=O)c3C)c2C)cc(F)c1CN[C@@H]1CNC(=O)C1", "note": "[Example 1.105]", "IC50": "< 10"}, {"smiles": "COc1cc(-c2cccc(-c3cccc(NC(=O)c4nn(C)c(=O)n(C)c4=O)c3C)c2C)cc(F)c1CNCCC1CCC(=O)N1", "note": "(centres unmarked) [Example 1.106]", "IC50": "< 10"}, {"smiles": "COc1cc(-c2cccc(-c3cccc(NC(=O)c4cn(C)c(=O)n(C)c4=O)c3C)c2C)cc(F)c1CN[C@@H]1CCC(=O)NC1", "note": "[Example 1.107]", "IC50": "< 10"}, {"smiles": "COc1cc(-c2cccc(-c3cccc(NC(=O)c4cn(C)c(=O)n(C)c4=O)c3C)c2C)cc(F)c1CNCC[C@@H]1CCC(=O)N1", "note": "[Example 1.108]", "IC50": "< 10"}, {"smiles": "COc1cc(-c2cccc(-c3cccc(NC(=O)c4c[nH]c(=O)n(C)c4=O)c3C)c2C)cc(F)c1CNCC[C@@H]1CCC(=O)N1", "note": "[Example 1.109]", "IC50": "< 10"}, {"smiles": "COc1cc(-c2cccc(-c3cccc(NC(=O)c4cn(C)c(=O)n(C)c4=O)c3C)c2C)cc(F)c1CN[C@H]1CCC(=O)NC1", "note": "[Example 1.110]", "IC50": "< 10"}, {"smiles": "COc1cc(-c2cccc(-c3cccc(NC(=O)c4c[nH]c(=O)n(C)c4=O)c3C)c2C)cc(F)c1CN[C@@H]1CCOC[C@@H]1O", "note": "[Example 1.111]", "IC50": "< 10"}, {"smiles": "COc1cc(-c2cccc(-c3cccc(NC(=O)c4cn(C)c(=O)n(C)c4=O)c3C)c2C)cc(F)c1CNCc1ccnn1C", "note": "[Example 1.112]", "IC50": "10 to 1000"}, {"smiles": "COc1cc(-c2cccc(-c3cccc(NC(=O)c4cncn(C)c4=O)c3C)c2C)cc(F)c1CNCc1c[nH]c(=O)[nH]c1=O", "note": "[Example 1.113]", "IC50": "< 10"}, {"smiles": "COc1cc(-c2cccc(-c3cccc(NC(=O)c4cn(C)c(=O)n(C)c4=O)c3C)c2C)cc(F)c1CNCCC(N)=O", "note": "[Example 1.114]", "IC50": "< 10"}, {"smiles": "COc1cc(-c2cccc(-c3cccc(NC(=O)c4cn(C)c(=O)n(C)c4=O)c3C)c2C)cc(F)c1CNCCC1CCC(=O)N1", "note": "(centres unmarked) [Example 1.115]", "IC50": "< 10"}, {"smiles": "COc1cc(-c2cccc(-c3cccc(Nc4nccc5nccnc45)c3C)c2C)cc(F)c1CNCc1ccn[nH]1", "note": "[Example 1.116]", "IC50": "10 to 1000"}, {"smiles": "COc1cc(-c2cccc(-c3cccc(NC(=O)c4cccn(C)c4=O)c3C)c2C)cc(F)c1CN[C@@H]1CCC[C@H]1O", "note": "[Example 1.117]", "IC50": "< 10"}]}]}
